# From ChEMBL document CHEMBL1136192, “Cyclin-dependent kinase 4 inhibitors as a treatment for cancer. Part 2: identification and optimisation of substituted 2,4-bis anilino pyrimidines” (Bioorg Med Chem Lett, 2003)
# Key:
# [1] = molecular target: Cyclin-dependent kinase 4 (Homo sapiens, UniProt P11802); assay: Inhibitory concentration against cyclin-dependent kinase 4
# [2] = molecular target: Cyclin-dependent kinase 2 (Homo sapiens, UniProt P24941); assay: Inhibitory concentration against cyclin-dependent kinase 2
# Cyclin-dependent kinase 4, sequence (P11802 whole entry): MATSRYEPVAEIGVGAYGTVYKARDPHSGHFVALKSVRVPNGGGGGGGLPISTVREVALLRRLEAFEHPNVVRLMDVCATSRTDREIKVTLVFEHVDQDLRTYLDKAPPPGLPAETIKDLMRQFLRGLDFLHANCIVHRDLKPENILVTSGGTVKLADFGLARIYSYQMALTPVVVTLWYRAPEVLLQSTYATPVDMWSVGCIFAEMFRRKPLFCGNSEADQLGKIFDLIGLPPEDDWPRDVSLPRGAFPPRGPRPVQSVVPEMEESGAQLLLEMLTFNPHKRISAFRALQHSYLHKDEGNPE
Compound,IC50 [1] [nM],IC50 [2] [nM]
COc1ccc(Nc2ccnc(Nc3ccc(OCC(O)CN(C)C)cc3)n2)cc1 (stereo not drawn),2000,36000
CN(C)CC(O)COc1ccc(Nc2nccc(Nc3cccc(Cl)c3)n2)cc1 (stereo not drawn),2000,5000
Cc1ccc(Cl)c(Nc2ccnc(Nc3ccc(OCC(O)CN(C)C)cc3)n2)c1 (stereo not drawn),2000,5000
COc1ccc(Nc2cc(Nc3ccc(OCC(O)CN(C)C)cc3)ncn2)cc1 (stereo not drawn),57000,> 100000
Cc1ccc(Nc2cc(Nc3ccc(OCC(O)CN(C)C)cc3)ncn2)cc1 (stereo not drawn),25000,> 100000
CN(C)CC(O)COc1ccc(Nc2nccc(Nc3ccccc3C#N)n2)cc1 (stereo not drawn),2000,4000
Cc1ccc(Nc2ccnc(Nc3ccc(OCC(O)CN(C)C)cc3)n2)cc1 (stereo not drawn),2000,26000
Cc1ccc(Cl)c(Nc2cc(Nc3ccc(OCC(O)CN(C)C)cc3)ncn2)c1 (stereo not drawn),2000,22000
CN(C)CC(O)COc1ccc(Nc2nccc(N(Cc3ccccc3)c3cc(Cl)ccc3Cl)n2)cc1 (stereo not drawn),1000,> 10000
Cc1ccc(F)c(Nc2cc(Nc3ccc(OCC(O)CN(C)C)cc3)ncn2)c1 (stereo not drawn),4000,81000
COc1ccccc1Nc1ccnc(Nc2ccc(OCC(O)CN(C)C)cc2)n1 (stereo not drawn),19000,15000
CN(C)CC(O)COc1ccc(Nc2cc(Nc3ccc(Cl)cc3)ncn2)cc1 (stereo not drawn),41000,> 100000
CN(C)CC(O)COc1ccc(Nc2nccc(Nc3ccccc3)n2)cc1 (stereo not drawn),2000,34000

# More lines, in order of falling IC50 [1], values ahead:
IC50 [1] [nM],IC50 [2] [nM],Compound
1000,18000,CN(C)CC(O)COc1ccc(Nc2nccc(Nc3ccc(Cl)cc3)n2)cc1 (stereo not drawn)
1000,7000,CN(C)CC(O)COc1ccc(Nc2nccc(Nc3ccccc3Br)n2)cc1 (stereo not drawn)
1000,7000,CN(C)CC(O)COc1ccc(Nc2nccc(Nc3ccccc3F)n2)cc1 (stereo not drawn)
1000,6000,CN(C)CC(O)COc1ccc(Nc2nccc(Nc3ccccc3Cl)n2)cc1 (stereo not drawn)
800,8000,Cc1cnc(Nc2ccc(OCC(O)CN(C)C)cc2)nc1Nc1ccccc1 (stereo not drawn)
800,1000,CN(C)CC(O)COc1ccc(Nc2nccc(Nc3cc(Cl)ccc3Cl)n2)cc1 (stereo not drawn)
700,2000,Cc1ccc(F)c(Nc2ccnc(Nc3ccc(OCC(O)CN(C)C)cc3)n2)c1 (stereo not drawn)
600,1000,CN(C)CC(O)COc1ccc(Nc2nccc(Nc3cc(C(F)(F)F)ccc3F)n2)cc1 (stereo not drawn)
300,3000,CN(C)CC(O)COc1ccc(Nc2nccc(N(CCC#N)c3cc(Cl)ccc3Cl)n2)cc1 (stereo not drawn)
300,> 10000,CN(C)CC(O)COc1ccc(Nc2ncc(F)c(Nc3ccccc3)n2)cc1 (stereo not drawn)
200,12000,CN(C)CC(O)COc1ccc(Nc2nccc(N(CCCC(F)(F)F)c3cc(Cl)ccc3Cl)n2)cc1 (stereo not drawn)
200,2000,C#CCN(c1ccnc(Nc2ccc(OCC(O)CN(C)C)cc2)n1)c1cc(Cl)ccc1Cl (stereo not drawn)
100,300,CN(C)CC(O)COc1ccc(Nc2ncc(Br)c(Nc3ccccc3)n2)cc1 (stereo not drawn)
100,500,CN(C)CC(O)COc1ccc(Nc2ncc(Cl)c(Nc3ccccc3)n2)cc1 (stereo not drawn)
100,700,CN(C)CC(O)COc1ccc(Nc2nccc(N(CC#N)c3cc(Cl)ccc3Cl)n2)cc1 (stereo not drawn)
10,200,CN(C)CC(O)COc1ccc(Nc2ncc(Br)c(N(CCCC(F)(F)F)c3ccccc3)n2)cc1 (stereo not drawn)
